Experimental data from patent US7781480B2, “Indole derivatives and their metal conjugates and uses thereof” (VLife Sciences Technologies Pvt. Ltd., priority 2007, dated 2010).
pEC50: −log10 of the molar value.

What was measured:
HCT116 (colon cancer) = test: MTT cell growth inhibition assay, HCT116; type: cell-based; conditions: HCT116, 72 h; read-out: MTT Assay EC50 after 72 h
Method: (§1) COLO 357 cells (K-ras mutated pancreatic cancer) were seeded at a density of 3×10^3 cells per well in 96-well microtiter culture plates. After overnight incubation, medium was removed and replaced with fresh medium containing different concentrations of compounds (0-100 μmol/L) diluted from a 10 mmol/L stock. On completion of 72 hours of incubation, 20 μL of 3-(4,5-dimethylthiazol-2-yl)-2,5-diphenyltetrazolium bromide (MTT) solution (5 mg/mL in PBS) were added to each well and incubated further for 2 hours. Upon termination, the supernatant was aspirated and the MTT formazan formed by metabolically viable cells was dissolved in 100 μL of isopropanol. The plates were mixed for 30 minutes on a gyratory shaker, and absorbance was measured at 595 nm using a plate reader (TECAN, Durham, N.C.). A similar protocol was used for BxPC3 (wild type K-Ras pancreatic cancer), PC3 (prostate cancer) and HCT (colon cancer) cell lines.
(§2) Cells were plated as described above and allowed to attach overnight. The cells were replaced with fresh medium containing 25 μmol/L of Compound 1 and Compound 2 for 72 hours. The effect of Compound 1 and Compound 2 pretreatment on cell viability was examined by the MTT assay method as described above.

BxPC3 = test: Quantification of apoptosis by ELISA, BxPC3; type: cell-based; conditions: BxPC3, 25 mmol/L, 72 hours; control 0.50
Method: (§3) The Cell Apoptosis ELISA Detection Kit (Roche, Palo Alto, Calif.) was used to detect apoptosis in COLO357 cells, with different treatments according to the manufacturer's protocol. Briefly, COLO357 cells were treated with […] of Compound 1 and Compound 2 for 72 hours. After treatment, the cytoplasmic histone DNA fragments from COLO 357 cells with different treatments were extracted and bound to immobilized anti-histone antibody.
(§4) Subsequently, the peroxidase-conjugated anti-DNA antibody was used for the detection of immobilized histone DNA fragments. After addition of substrate for peroxidase, the spectrophotometric absorbance of the samples was determined using ULTRA Multifunctional Microplate Reader (TECAN) at 405 nm. A similar protocol was used for BxPC3, PC3 and HCT116 cell lines.

HCT116 = test: Quantification of apoptosis by ELISA, HCT116; type: cell-based; conditions: HCT116, 72 hours; control 0.35
Method: as §3, §4

PC3 (prostate cancer) = test: MTT cell growth inhibition assay, PC3; type: cell-based; conditions: PC3, 72 h; read-out: MTT Assay EC50 after 72 h
Method: as §1, §2

Akt = Akt assay (ELISA based activity kit); type: biochemical
Method: Akt activity kit is an ELISA based activity kit that utilizes biotinylated peptide substrate (GRPRTSSFAEG) that is phosphorylated on second serine by Akt1, Akt2, Akt3, SGK and MSK1. Biotinylated Akt substrate and sample containing Akt are incubated in presence of ATP in the wells of a streptavidin coated 96-well plate, which allows for phosphorylation and substrate capture in a single step. The phosphorylated substrate is detected using phosphoserine detection antibody followed by HRP-antibody conjugate and color development with TMB substrate. Sensitivity is increased by addition of ELISA stop solution and relative activity is determined by reading dual absorbance at 450/540 nm or 450/595 nm. Inhibition profiles can be generated based on Akt activity in the presence and absence of test inhibitor(s).

COLO357 cells = test: Quantification of apoptosis by ELISA, COLO357; type: cell-based; conditions: COLO357, 72 hours; control 0.75
Method: as §3, §4

[1] = tested on: BxPC3 (wild type K-Ras pancreatic cancer); test: MTT cell growth inhibition assay, BxPC3; type: cell-based; conditions: BxPC3, 72 h; read-out: MTT Assay EC50 after 72 h
Method: as §1, §2

[2] = tested on: COLO 357 cells (K-ras mutated pancreatic cancer); test: MTT cell growth inhibition assay, COLO357; type: cell-based; conditions: COLO357, 72 h; read-out: MTT Assay EC50 after 72 h
Method: as §1, §2

PC3 = test: Quantification of apoptosis by ELISA, PC3; type: cell-based; conditions: PC3, 72 hours; control 0.50
Method: as §3, §4

| pEC50 (HCT116 (colon cancer)) | pEC50 (PC3 (prostate cancer)) | pEC50 [1] | pEC50 [2] | Substance | O.D. Of Histone/DNA at 405 nm (BxPC3) | O.D. Of Histone/DNA at 405 nm (HCT116) | Akt inhibitory activity (Akt) | O.D. Of Histone/DNA at 405 nm (COLO357 cells) | O.D. Of Histone/DNA at 405 nm (PC3) |
| --- | --- | --- | --- | --- | --- | --- | --- | --- | --- |
| 4.85 | 4.78 | 4.72 | 4.84 | Cu(II) complex of (2Z)-2-(N-hydroxyimino)-N′-[(1Z)-1H-indol-3-ylmethylidene]-1,3-dioxobutanehydrazide [Compound 2] | 1.80 | 1.75 | micromolar range | 2.00 | 1.90 |
| 4.93 | 4.54 | 4.54 | 4.83 | Cu(II) complex of 2-amino-3-[(Z)—N′-(1H-indol-3-ylmethylidene)hydrazinecarbonyl]-propanoic acid [Compound 1] | 2.20 | 1.60 | micromolar range | 1.90 | 0.60 |
